Reference: PubChem BioAssay AID1963867 (Molecular Pharmacology Branch, DTP, NCI, 2024)

Test system: KRAS-mutant PDC tumor spheroid with HUVEC/MSC, viability
Assay: Anticancer human tumor 327498-153-R-J2-PDC patient-derived uterine carcinosarcoma cell line growth inhibition [KRAS2]
Settings: for IC50: curve of first compound; for viability, T/C: stronger effect = lower value
How it was run: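 KRAS-mutant tumor cells were grown as spheroids with HUVEC endothelial cells and human MSCs as stroma. Targeted agents were tested alone and with KRAS pathway inhibitors. Doses started at or near clinical Cmax, or 10 microM, descending half-log.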

[1] = second compound 0.1 µM, first compound 0.000316 µM
[2] = second compound 0.1 µM, first compound 0.001 µM
[3] = second compound 0.1 µM, first compound 0.00316 µM
[4] = second compound 0.1 µM, first compound 0.01 µM
[5] = second compound 0.1 µM, first compound 0.0316 µM
[6] = second compound 0.316 µM, first compound 0.000316 µM
[7] = second compound 0.316 µM, first compound 0.001 µM
[8] = second compound 0.316 µM, first compound 0.00316 µM
[9] = second compound 0.316 µM, first compound 0.01 µM
[10] = second compound 0.316 µM, first compound 0.0316 µM
[11] = second compound 1 µM, first compound 0.000316 µM
[12] = second compound 1 µM, first compound 0.001 µM
[13] = second compound 1 µM, first compound 0.00316 µM
[14] = second compound 1 µM, first compound 0.01 µM
[15] = second compound 1 µM, first compound 0.0316 µM
[16] = second compound 3.16 µM, first compound 0.000316 µM
[17] = second compound 3.16 µM, first compound 0.001 µM
[18] = second compound 3.16 µM, first compound 0.00316 µM
[19] = second compound 3.16 µM, first compound 0.01 µM
[20] = second compound 3.16 µM, first compound 0.0316 µM
[21] = second compound 10 µM, first compound 0.000316 µM
[22] = second compound 10 µM, first compound 0.001 µM
[23] = second compound 10 µM, first compound 0.00316 µM
[24] = second compound 10 µM, first compound 0.01 µM
[25] = second compound 10 µM, first compound 0.0316 µM
[26] = second compound 0.1 µM, first compound 0.1 µM
[27] = second compound 0.1 µM, first compound 0.316 µM
[28] = second compound 0.1 µM, first compound 1 µM
[29] = second compound 0.1 µM, first compound 3.16 µM
[30] = second compound 0.1 µM, first compound 10 µM
[31] = second compound 0.316 µM, first compound 0.1 µM
[32] = second compound 0.316 µM, first compound 0.316 µM
[33] = second compound 0.316 µM, first compound 1 µM
[34] = second compound 0.316 µM, first compound 3.16 µM
[35] = second compound 0.316 µM, first compound 10 µM
[36] = second compound 1 µM, first compound 0.1 µM
[37] = second compound 1 µM, first compound 0.316 µM
[38] = second compound 1 µM, first compound 1 µM
[39] = second compound 1 µM, first compound 3.16 µM
[40] = second compound 1 µM, first compound 10 µM
[41] = second compound 3.16 µM, first compound 0.1 µM
[42] = second compound 3.16 µM, first compound 0.316 µM
[43] = second compound 3.16 µM, first compound 1 µM
[44] = second compound 3.16 µM, first compound 3.16 µM
[45] = second compound 3.16 µM, first compound 10 µM
[46] = second compound 10 µM, first compound 0.1 µM
[47] = second compound 10 µM, first compound 0.316 µM
[48] = second compound 10 µM, first compound 1 µM
[49] = second compound 10 µM, first compound 3.16 µM
[50] = second compound 10 µM, first compound 10 µM
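Note: spheroids exposed to agents for seven days before reading.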
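Throughout, for viability, T/C: 100% = DMSO vehicle wells so lower means fewer viable cells.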

Compound `CC(=O)Nc1cccc(-n2c(=O)n(C3CC3)c(=O)c3c(Nc4ccc(I)cc4F)n(C)c(=O)c(C)c32)c1` + C=CC(=O)N1CCN(c2nc(=O)n(-c3c(C)ccnc3C(C)C)c3nc(-c4c(O)cccc4F)c(F)cc23)C(C)C1 has an IC50 (second compound 0.1 µM) of 6.05 nM, an IC50 (second compound 0.316 µM) of 3.57 nM and an IC50 (second compound 1 µM) of 4.92 nM. For the same compound, the IC50 (second compound 3.16 µM) was 2.38 nM, the IC50 (second compound 10 µM) was under 0.1 nM and the viability, T/C (second compound 0.1 µM, first compound 0.0001 µM) was 70.5%. For the same compound, the viability, T/C [1] was 60.1%, the viability, T/C [2] was 61.5% and the viability, T/C [3] was 57.9%. It also gave a viability, T/C [4] of 45.2%, a viability, T/C [5] of 16.2% and a viability, T/C (second compound 0.316 µM, first compound 0.0001 µM) of 65.7%. For the same compound, the viability, T/C [6] was 67.2%, the viability, T/C [7] was 57.6% and the viability, T/C [8] was 51.5%. It also gave a viability, T/C [9] of 37.7%, a viability, T/C [10] of 14.5% and a viability, T/C (second compound 1 µM, first compound 0.0001 µM) of 60%. It also gave a viability, T/C [11] of 63%, a viability, T/C [12] of 56.3% and a viability, T/C [13] of 53.1%. The viability, T/C [14] was 44.4%, the viability, T/C [15] was 13.3% and the viability, T/C (second compound 3.16 µM, first compound 0.0001 µM) was 60.7%. It also gave a viability, T/C [16] of 57.2%, a viability, T/C [17] of 54.5% and a viability, T/C [18] of 49.4%. The viability, T/C [19] was 31.9%, the viability, T/C [20] was 15.3% and the viability, T/C (second compound 10 µM, first compound 0.0001 µM) was 46.5%. It also gave a viability, T/C [21] of 47.7%, a viability, T/C [22] of 45.1% and a viability, T/C [23] of 41.2%. The viability, T/C [24] was 24.1% and the viability, T/C [25] was 13.4%.
`CC1(C)CCC(CN2CCN(c3ccc(C(=O)NS(=O)(=O)c4ccc(NCC5CCOCC5)c([N+](=O)[O-])c4)c(Oc4cnc5[nH]ccc5c4)c3)CC2)=C(c2ccc(Cl)cc2)C1` + CC1OCC2(CCN(c3cnc(Sc4ccnc(N)c4Cl)c(N)n3)CC2)C1N was tested, and the IC50 (second compound 0.1 µM) was 1920 nM, the IC50 (second compound 0.316 µM) was 1120 nM and the IC50 (second compound 1 µM) was under 31.6 nM. The IC50 (second compound 3.16 µM) was under 31.6 nM, the IC50 (second compound 10 µM) was under 31.6 nM and the viability, T/C [5] was 64.6%. For the same compound, the viability, T/C [26] was 67.3%, the viability, T/C [27] was 73.2% and the viability, T/C [28] was 66%. It also gave a viability, T/C [29] of 37.6%, a viability, T/C [30] of 3.49% and a viability, T/C [10] of 53.7%. It also gave a viability, T/C [31] of 48.5%, a viability, T/C [32] of 51.1% and a viability, T/C [33] of 56.4%. The viability, T/C [34] was 28.6%, the viability, T/C [35] was 1.66% and the viability, T/C [15] was 42%. The viability, T/C [36] was 42.7%, the viability, T/C [37] was 42% and the viability, T/C [38] was 41%. For the same compound, the viability, T/C [39] was 25%, the viability, T/C [40] was 0.76% and the viability, T/C [20] was 32.6%. For the same compound, the viability, T/C [41] was 33.3%, the viability, T/C [42] was 30.8% and the viability, T/C [43] was 25.9%. The viability, T/C [44] was 15.6%, the viability, T/C [45] was 0.57% and the viability, T/C [25] was 23.6%. It also gave a viability, T/C [46] of 28.6%, a viability, T/C [47] of 23.7% and a viability, T/C [48] of 25%. The viability, T/C [49] was 15.4% and the viability, T/C [50] was 0.27%.
In the case of `CC(C)NCC(C(=O)N1CCN(c2ncnc3c2C(C)CC3O)CC1)c1ccc(Cl)cc1` (stereo not given) + CNCc1ccccc1-c1csc(C(C)Nc2nc(C)nc3cc(OC)c(OC)cc23)c1, the IC50 (second compound 0.1 µM) is reported as 216 nM, the IC50 (second compound 0.316 µM) is reported as 147 nM and the IC50 (second compound 1 µM) is reported as 115 nM. For the same compound, the IC50 (second compound 3.16 µM) was under 31.6 nM, the IC50 (second compound 10 µM) was under 31.6 nM and the viability, T/C [5] was 77.9%. It also gave a viability, T/C [26] of 55.6%, a viability, T/C [27] of 45% and a viability, T/C [28] of 34.7%. The viability, T/C [29] was 26.4%, the viability, T/C [30] was 15% and the viability, T/C [10] was 63.6%. For the same compound, the viability, T/C [31] was 55.1%, the viability, T/C [32] was 40.9% and the viability, T/C [33] was 27.5%. It also gave a viability, T/C [34] of 22.1%, a viability, T/C [35] of 14.6% and a viability, T/C [15] of 66.3%. The viability, T/C [36] was 52.5%, the viability, T/C [37] was 36.1% and the viability, T/C [38] was 24.6%. The viability, T/C [39] was 18.2%, the viability, T/C [40] was 11.5% and the viability, T/C [20] was 0.12%. For the same compound, the viability, T/C [41] was 0.09%, the viability, T/C [42] was 0.09% and the viability, T/C [43] was 0.07%. The viability, T/C [44] was 0.3%, the viability, T/C [45] was 0.16% and the viability, T/C [25] was 0.23%. The viability, T/C [46] was 0.44%, the viability, T/C [47] was 0.16% and the viability, T/C [48] was 0.16%. It also gave a viability, T/C [49] of 0.16% and a viability, T/C [50] of 0.23%.
In the case of `CC(C)n1nc(-c2ccc3oc(N)nc3c2)c2c(N)ncnc21` + COc1cc2nc(C)nc(NC(C)c3cc(N)cc(C(F)(F)F)c3)c2cc1OC1CCOC1, the IC50 (second compound 0.1 µM) is reported as 4.34 nM, the IC50 (second compound 0.316 µM) is reported as 2.29 nM and the IC50 (second compound 1 µM) is reported as 1.98 nM. It also gave an IC50 (second compound 3.16 µM) of 0.824 nM, an IC50 (second compound 10 µM) of under 0.316 nM and a viability, T/C [1] of 77.5%. For the same compound, the viability, T/C [2] was 71.7%, the viability, T/C [3] was 59.1% and the viability, T/C [4] was 27.3%. For the same compound, the viability, T/C [5] was 10.2%, the viability, T/C [26] was 6.27% and the viability, T/C [6] was 71.5%. For the same compound, the viability, T/C [7] was 60.4%, the viability, T/C [8] was 46.5% and the viability, T/C [9] was 23.3%. The viability, T/C [10] was 8.8%, the viability, T/C [31] was 6.67% and the viability, T/C [11] was 60.2%. It also gave a viability, T/C [12] of 63.7%, a viability, T/C [13] of 40.1% and a viability, T/C [14] of 26.3%. It also gave a viability, T/C [15] of 8.62%, a viability, T/C [36] of 6.87% and a viability, T/C [16] of 52.6%. The viability, T/C [17] was 50.1%, the viability, T/C [18] was 36.1% and the viability, T/C [19] was 17.1%. It also gave a viability, T/C [20] of 7.65%, a viability, T/C [41] of 4.15% and a viability, T/C [21] of 38.8%. For the same compound, the viability, T/C [22] was 35.5%, the viability, T/C [23] was 23.4% and the viability, T/C [24] was 17.4%. It also gave a viability, T/C [25] of 3.51% and a viability, T/C [46] of 1.94%.
